# Source: ChEMBL document CHEMBL1667813, “Difluoroethylamines as an amide isostere in inhibitors of cathepsin K” (Bioorg Med Chem Lett, 2011)
# How the values were obtained:
# Homo sapiens [1] = species on record: Homo sapiens; assay: Selectivity ratio of IC50 for human cathepsin S to IC50 for human cathepsin K
# Homo sapiens [2] = species on record: Homo sapiens; assay: Selectivity ratio of IC50 for human cathepsin L to IC50 for human cathepsin K
# Homo sapiens [3] = species on record: Homo sapiens; assay: Selectivity ratio of IC50 for human cathepsin B to IC50 for human cathepsin K
# [4] = Ratio of product of IC50 for rabbit bone resorption and IC50 for humanized rabbit cathepsin K to IC50 for rabbit cathepsin K
# Cathepsin K = Cathepsin K (Homo sapiens, UniProt P43235); assay: Inhibition of humanized rabbit cathepsin K
# Homo sapiens [5] = species on record: Homo sapiens; assay: Selectivity ratio of IC50 for human cathepsin F to IC50 for human cathepsin K
# [6] = Lipophilicity, log D of the compound; format: physicochemical; settings: octanol/water
# [7] = Aqueous equilibrium solubility of the compound in water; format: physicochemical
# [8] = Dissociation constant, pKa of the compound; format: physicochemical
# [9] = Oral bioavailability in rat at 2 mg/kg, iv; format: ADME, organism-based; settings: in vivo
# [10] = Half life in rat at 10 mg/kg, po or 2 mg/kg, iv; format: ADME, organism-based; settings: in vivo
# [11] = Oral bioavailability in dog at 1 mg/kg, iv; format: ADME, organism-based, Canis lupus familiaris; settings: in vivo
# [12] = Half life in dog at 5 mg/kg, po or 1 mg/kg, iv; format: ADME, organism-based, Canis lupus familiaris; settings: in vivo
SMILES,Ratio IC50 (Homo sapiens [1]),Ratio IC50 (Homo sapiens [2]),Ratio IC50 (Homo sapiens [3]),IC50 [4],IC50 (Cathepsin K),Ratio IC50 (Homo sapiens [5]),logD [6],solubility thermodynamic [7],pKa [8],bioavailability [9],half-life [10],bioavailability [11],half-life [12]
CC(C)C[C@H](N[C@@H](c1ccc(-c2ccc(C(O)C(F)(F)F)cc2)cc1)C(F)F)C(=O)NC1(C#N)CC1 (stereo not given in full),813,785,> 5180,32 nM,1.9 nM,126,–,–,–,–,–,–,–
CC(C)(F)C[C@H](N[C@@H](c1ccc(-c2ccc(S(C)(=O)=O)cc2)cc1)C(F)(F)F)C(=O)NC1(C#N)CC1 [ODANACATIB],300,15000,5170,5 nM,0.2 nM,3980,–,–,–,8%,–,6%,–
CC(C)C[C@H](N[C@@H](c1ccc(-c2ccc(S(C)(=O)=O)cc2)cc1)C(F)F)C(=O)NC1(C#N)CC1,1140,894,> 11900,10 nM,0.8 nM,645,0.11,< 10 µg/mL,2.7,100%,0.8 h,–,–
CC(C)(F)C[C@H](N[C@@H](c1ccc(-c2ccc(S(C)(=O)=O)cc2)cc1)C(F)F)C(=O)NC1(C#N)CC1,210,6330,2300,9 nM,1 nM,1920,–,–,–,22%,3.8 h,23%,35 h
CC(C)C[C@H](N[C@@H](c1ccc(-c2ccc(S(C)(=O)=O)cc2)cc1)C(F)F)C(=O)NCC#N,2000,869,> 32600,15 nM,0.3 nM,822,–,–,–,–,–,–,–
CC(C)C[C@H](N[C@@H](c1ccc(-c2ccc(C(O)C(F)(F)F)cc2)cc1)C(F)(F)F)C(=O)NC1(C#N)CC1 (stereo not given in full),311,506,5980,21 nM,1.6 nM,–,–,–,–,–,–,–,–

# These reach a lower IC50 [4]. Values come first.
Ratio IC50 (Homo sapiens [1]),Ratio IC50 (Homo sapiens [2]),Ratio IC50 (Homo sapiens [3]),IC50 [4],IC50 (Cathepsin K),Ratio IC50 (Homo sapiens [5]),logD [6],solubility thermodynamic [7],pKa [8],bioavailability [9],half-life [10],bioavailability [11],half-life [12],SMILES
890,1320,26200,3 nM,0.2 nM,480,–,–,–,–,–,–,–,CC(C)C[C@H](N[C@@H](c1ccc(-c2ccc(S(C)(=O)=O)cc2)cc1)C(F)(F)F)C(=O)NCC#N
809,1390,23600,3 nM,0.3 nM,370,3.53,< 10 µg/mL,< 2,4%,2.6 h,–,–,CC(C)C[C@H](N[C@@H](c1ccc(-c2ccc(S(C)(=O)=O)cc2)cc1)C(F)(F)F)C(=O)NC1(C#N)CC1
1200,9370,4400,2 nM,0.3 nM,1380,–,–,–,–,–,–,–,CC(C)(F)C[C@H](N[C@@H](c1ccc(-c2ccc(C3(C(N)=O)CC3)cc2F)cc1)C(F)(F)F)C(=O)NC1(C#N)CC1
2880,12700,7230,4 nM,0.3 nM,2340,–,–,–,–,–,–,–,CC(C)(F)C[C@H](N[C@@H](c1ccc(-c2ccc(C3(C(N)=O)CC3)cc2F)cc1)C(F)F)C(=O)NC1(C#N)CC1
